Test results taken from paper PMC6886798, “Expression of myeloid Src-family kinases is associated with poor prognosis in AML and influences Flt3-ITD kinase inhibitor acquired resistance” (PLoS ONE, 2019).

What was measured:
Test in all cases: KINOMEscan
Format in all cases: binding
Settings in all cases: 1.0 µM
VPS34 = target: T1, VPS34 (Homo sapiens, UniProt Q8NEB9)
T1 construct: DNA tag (qPCR barcode); purchased Eurofins/DiscoverX KINOMEscan scanMAX
Method: (§1) Kinase retention to the immobilized ligand is then measured using quantitative real-time PCR for each kinase-specific DNA barcode.

DYRK2 = target: T2, DYRK2 (Homo sapiens, UniProt Q92630)
T2 construct: purchased Eurofins/DiscoverX KINOMEscan scanMAX
Method: as §1

QSK = target: T3, QSK (Homo sapiens, UniProt Q9Y2K2)
T3 construct: purchased Eurofins/DiscoverX KINOMEscan scanMAX
Method: as §1

ROS1 = target: T4, ROS1 (Homo sapiens, UniProt P08922)
T4 construct: purchased Eurofins/DiscoverX KINOMEscan scanMAX
Method: as §1

MAP3K15 = target: T5, MAP3K15 (Homo sapiens, UniProt Q6ZN16)
T5 construct: purchased Eurofins/DiscoverX KINOMEscan scanMAX
Method: as §1

AMPK-alpha2 = target: T6, AMPK-alpha2 (Homo sapiens, UniProt P54646)
T6 construct: purchased Eurofins/DiscoverX KINOMEscan scanMAX
Method: as §1

ERK2 = target: T7, ERK2 (Homo sapiens, UniProt P28482)
T7 construct: purchased Eurofins/DiscoverX KINOMEscan scanMAX
Method: as §1

PRKCD = target: T8, PRKCD (Homo sapiens, UniProt Q05655)
T8 construct: purchased Eurofins/DiscoverX KINOMEscan scanMAX
Method: as §1

TEC = target: T9, TEC (Homo sapiens, UniProt P42680)
T9 construct: purchased Eurofins/DiscoverX KINOMEscan scanMAX
Method: as §1

SLK = target: T10, SLK (Homo sapiens, UniProt Q9H2G2)
T10 construct: purchased Eurofins/DiscoverX KINOMEscan scanMAX
Method: as §1

ARK5 = target: T11, ARK5 (Homo sapiens, UniProt O60285)
T11 construct: purchased Eurofins/DiscoverX KINOMEscan scanMAX
Method: as §1

HIPK4 = target: T12, HIPK4 (Homo sapiens, UniProt Q8NE63)
T12 construct: purchased Eurofins/DiscoverX KINOMEscan scanMAX
Method: as §1

SRPK2 = target: T13, SRPK2 (Homo sapiens, UniProt P78362)
T13 construct: purchased Eurofins/DiscoverX KINOMEscan scanMAX
Method: as §1

PIK3CA(C420R) = target: T14, PIK3CA(C420R) (Homo sapiens, UniProt P42336, C420R)
T14 construct: purchased Eurofins/DiscoverX KINOMEscan scanMAX
Method: as §1

BMPR1B = target: T15, BMPR1B (Homo sapiens, UniProt O00238)
T15 construct: purchased Eurofins/DiscoverX KINOMEscan scanMAX
Method: as §1

CSNK1G2 = target: T16, CSNK1G2 (Homo sapiens, UniProt P78368)
T16 construct: purchased Eurofins/DiscoverX KINOMEscan scanMAX
Method: as §1

TRKA = target: T17, TRKA (Homo sapiens, UniProt P04629)
T17 construct: purchased Eurofins/DiscoverX KINOMEscan scanMAX
Method: as §1

EPHA6 = target: T18, EPHA6 (Homo sapiens, UniProt Q9UF33)
T18 construct: purchased Eurofins/DiscoverX KINOMEscan scanMAX
Method: as §1

CDK2 = target: T19, CDK2 (Homo sapiens, UniProt P24941)
T19 construct: purchased Eurofins/DiscoverX KINOMEscan scanMAX
Method: as §1

PIK3CD = target: T20, PIK3CD (Homo sapiens, UniProt O00329)
T20 construct: purchased Eurofins/DiscoverX KINOMEscan scanMAX
Method: as §1

IRAK4 = target: T21, IRAK4 (Homo sapiens, UniProt Q9NWZ3)
T21 construct: purchased Eurofins/DiscoverX KINOMEscan scanMAX
Method: as §1

WNK1 = target: T22, WNK1 (Homo sapiens, UniProt Q9H4A3)
T22 construct: DNA tag (qPCR barcode); purchased Eurofins/DiscoverX KINOMEscan scanMAX
Method: as §1

DMPK = target: T23, DMPK (Homo sapiens, UniProt Q09013)
T23 construct: purchased Eurofins/DiscoverX KINOMEscan scanMAX
Method: as §1

EPHB2 = target: T24, EPHB2 (Homo sapiens, UniProt P29323)
T24 construct: purchased Eurofins/DiscoverX KINOMEscan scanMAX
Method: as §1

GRK3 = target: T25, GRK3 (Homo sapiens, UniProt P35626)
T25 construct: purchased Eurofins/DiscoverX KINOMEscan scanMAX
Method: as §1

MET = target: T26, MET (Homo sapiens, UniProt P08581)
T26 construct: purchased Eurofins/DiscoverX KINOMEscan scanMAX
Method: as §1

PFCDPK1(P.falciparum) = target: T27, PFCDPK1(P.falciparum) (Plasmodium falciparum, UniProt P62344)
T27 construct: purchased Eurofins/DiscoverX KINOMEscan scanMAX
Method: as §1

DLK = target: T28, DLK (Homo sapiens, UniProt Q12852)
T28 construct: purchased Eurofins/DiscoverX KINOMEscan scanMAX
Method: as §1

FER = target: T29, FER (Homo sapiens, UniProt P16591)
T29 construct: purchased Eurofins/DiscoverX KINOMEscan scanMAX
Method: as §1

[1] = target: T30, RPS6KA4(Kin.Dom.1-N-terminal) (Homo sapiens, UniProt O75676)
T30 construct: RPS6KA4(Kin.Dom.1-N-terminal); purchased Eurofins/DiscoverX KINOMEscan scanMAX
Method: as §1

LIMK1 = target: T31, LIMK1 (Homo sapiens, UniProt P53667)
T31 construct: purchased Eurofins/DiscoverX KINOMEscan scanMAX
Method: as §1

DDR1 = target: T32, DDR1 (Homo sapiens, UniProt Q08345)
T32 construct: purchased Eurofins/DiscoverX KINOMEscan scanMAX
Method: as §1

KIT(D816H) = target: T33, KIT(D816H) (Homo sapiens, UniProt P10721, D816H)
T33 construct: purchased Eurofins/DiscoverX KINOMEscan scanMAX
Method: as §1

SRPK1 = target: T34, SRPK1 (Homo sapiens, UniProt Q96SB4)
T34 construct: purchased Eurofins/DiscoverX KINOMEscan scanMAX
Method: as §1

CDKL5 = target: T35, CDKL5 (Homo sapiens, UniProt O76039)
T35 construct: purchased Eurofins/DiscoverX KINOMEscan scanMAX
Method: as §1

CDKL3 = target: T36, CDKL3 (Homo sapiens, UniProt Q8IVW4)
T36 construct: purchased Eurofins/DiscoverX KINOMEscan scanMAX
Method: as §1

WEE1 = target: T37, WEE1 (Homo sapiens, UniProt P30291)
T37 construct: DNA tag (qPCR barcode); purchased Eurofins/DiscoverX KINOMEscan scanMAX
Method: as §1

HIPK1 = target: T38, HIPK1 (Homo sapiens, UniProt Q86Z02)
T38 construct: purchased Eurofins/DiscoverX KINOMEscan scanMAX
Method: as §1

PIP5K1A = target: T39, PIP5K1A (Homo sapiens, UniProt Q99755)
T39 construct: purchased Eurofins/DiscoverX KINOMEscan scanMAX
Method: as §1

[2] = target: T40, JAK1(JH2domain-pseudokinase) (Homo sapiens, UniProt P23458)
T40 construct: JAK1(JH2domain-pseudokinase); purchased Eurofins/DiscoverX KINOMEscan scanMAX
Method: as §1

PIK3CA(I800L) = target: T41, PIK3CA(I800L) (Homo sapiens, UniProt P42336, I800L)
T41 construct: purchased Eurofins/DiscoverX KINOMEscan scanMAX
Method: as §1

ICK = target: T42, ICK (Homo sapiens, UniProt Q9UPZ9)
T42 construct: purchased Eurofins/DiscoverX KINOMEscan scanMAX
Method: as §1

T33 sequence (P10721 26-976 D816H): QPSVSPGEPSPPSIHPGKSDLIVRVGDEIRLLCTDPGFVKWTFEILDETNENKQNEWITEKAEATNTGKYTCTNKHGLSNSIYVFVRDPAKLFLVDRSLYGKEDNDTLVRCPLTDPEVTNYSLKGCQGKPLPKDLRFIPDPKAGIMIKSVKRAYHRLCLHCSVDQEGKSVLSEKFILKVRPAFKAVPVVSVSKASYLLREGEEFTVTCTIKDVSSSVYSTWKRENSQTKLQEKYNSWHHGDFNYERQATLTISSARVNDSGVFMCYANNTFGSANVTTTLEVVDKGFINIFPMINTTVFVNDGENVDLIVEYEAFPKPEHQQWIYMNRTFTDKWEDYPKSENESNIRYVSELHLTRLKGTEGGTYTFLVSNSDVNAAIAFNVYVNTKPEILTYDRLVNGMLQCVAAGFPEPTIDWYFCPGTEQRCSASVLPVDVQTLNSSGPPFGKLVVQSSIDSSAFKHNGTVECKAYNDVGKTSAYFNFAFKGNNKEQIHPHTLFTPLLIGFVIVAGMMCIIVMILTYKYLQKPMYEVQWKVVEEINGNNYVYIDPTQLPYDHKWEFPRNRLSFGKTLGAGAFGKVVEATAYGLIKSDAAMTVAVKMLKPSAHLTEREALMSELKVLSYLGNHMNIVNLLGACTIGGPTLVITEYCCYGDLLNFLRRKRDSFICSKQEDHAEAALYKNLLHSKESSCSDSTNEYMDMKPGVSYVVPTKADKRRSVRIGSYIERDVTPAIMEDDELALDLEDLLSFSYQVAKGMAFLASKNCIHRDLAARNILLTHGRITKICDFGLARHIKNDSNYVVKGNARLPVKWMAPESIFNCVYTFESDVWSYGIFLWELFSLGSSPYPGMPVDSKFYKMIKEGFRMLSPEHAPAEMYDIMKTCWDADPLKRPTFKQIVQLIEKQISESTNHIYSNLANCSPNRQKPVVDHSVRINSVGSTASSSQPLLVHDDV
T2 sequence (Q92630 whole entry): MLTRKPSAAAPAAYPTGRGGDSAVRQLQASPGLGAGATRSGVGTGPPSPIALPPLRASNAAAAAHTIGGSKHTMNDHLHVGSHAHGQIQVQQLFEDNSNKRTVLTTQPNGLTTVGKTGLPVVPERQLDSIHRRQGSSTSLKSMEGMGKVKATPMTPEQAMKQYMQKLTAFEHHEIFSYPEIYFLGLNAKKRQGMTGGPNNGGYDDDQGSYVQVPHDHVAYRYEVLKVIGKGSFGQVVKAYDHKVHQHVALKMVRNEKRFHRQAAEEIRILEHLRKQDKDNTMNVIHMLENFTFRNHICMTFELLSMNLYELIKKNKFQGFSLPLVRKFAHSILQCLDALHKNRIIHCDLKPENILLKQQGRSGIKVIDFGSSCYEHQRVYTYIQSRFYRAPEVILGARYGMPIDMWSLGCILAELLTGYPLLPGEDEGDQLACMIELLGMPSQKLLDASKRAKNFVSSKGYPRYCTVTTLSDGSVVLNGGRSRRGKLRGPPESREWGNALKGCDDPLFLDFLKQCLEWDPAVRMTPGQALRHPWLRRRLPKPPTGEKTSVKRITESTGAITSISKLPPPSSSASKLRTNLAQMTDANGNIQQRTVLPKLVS
T1 sequence (Q8NEB9 whole entry): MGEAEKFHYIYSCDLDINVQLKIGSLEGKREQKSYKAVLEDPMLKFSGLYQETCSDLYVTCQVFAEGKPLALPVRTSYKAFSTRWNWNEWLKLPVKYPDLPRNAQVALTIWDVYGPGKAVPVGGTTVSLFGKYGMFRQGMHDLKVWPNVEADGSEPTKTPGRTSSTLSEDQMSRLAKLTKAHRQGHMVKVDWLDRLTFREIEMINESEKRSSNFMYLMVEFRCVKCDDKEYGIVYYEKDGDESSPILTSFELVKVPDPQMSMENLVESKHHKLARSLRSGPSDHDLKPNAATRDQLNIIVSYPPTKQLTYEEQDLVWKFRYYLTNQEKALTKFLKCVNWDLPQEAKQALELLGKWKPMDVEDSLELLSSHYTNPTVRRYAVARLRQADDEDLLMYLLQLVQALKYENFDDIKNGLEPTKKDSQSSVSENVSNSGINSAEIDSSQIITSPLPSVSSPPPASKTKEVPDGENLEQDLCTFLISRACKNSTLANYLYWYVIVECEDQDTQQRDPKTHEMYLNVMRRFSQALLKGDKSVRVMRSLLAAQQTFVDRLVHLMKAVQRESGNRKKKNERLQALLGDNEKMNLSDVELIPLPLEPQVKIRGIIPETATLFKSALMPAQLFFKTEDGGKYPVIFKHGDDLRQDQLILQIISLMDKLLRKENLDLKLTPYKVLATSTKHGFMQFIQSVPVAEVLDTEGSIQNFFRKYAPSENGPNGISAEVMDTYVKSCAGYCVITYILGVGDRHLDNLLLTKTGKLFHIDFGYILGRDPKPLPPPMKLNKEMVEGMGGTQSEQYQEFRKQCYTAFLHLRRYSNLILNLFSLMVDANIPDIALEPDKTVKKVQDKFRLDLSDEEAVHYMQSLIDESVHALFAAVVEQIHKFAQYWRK
T20 sequence (O00329 whole entry): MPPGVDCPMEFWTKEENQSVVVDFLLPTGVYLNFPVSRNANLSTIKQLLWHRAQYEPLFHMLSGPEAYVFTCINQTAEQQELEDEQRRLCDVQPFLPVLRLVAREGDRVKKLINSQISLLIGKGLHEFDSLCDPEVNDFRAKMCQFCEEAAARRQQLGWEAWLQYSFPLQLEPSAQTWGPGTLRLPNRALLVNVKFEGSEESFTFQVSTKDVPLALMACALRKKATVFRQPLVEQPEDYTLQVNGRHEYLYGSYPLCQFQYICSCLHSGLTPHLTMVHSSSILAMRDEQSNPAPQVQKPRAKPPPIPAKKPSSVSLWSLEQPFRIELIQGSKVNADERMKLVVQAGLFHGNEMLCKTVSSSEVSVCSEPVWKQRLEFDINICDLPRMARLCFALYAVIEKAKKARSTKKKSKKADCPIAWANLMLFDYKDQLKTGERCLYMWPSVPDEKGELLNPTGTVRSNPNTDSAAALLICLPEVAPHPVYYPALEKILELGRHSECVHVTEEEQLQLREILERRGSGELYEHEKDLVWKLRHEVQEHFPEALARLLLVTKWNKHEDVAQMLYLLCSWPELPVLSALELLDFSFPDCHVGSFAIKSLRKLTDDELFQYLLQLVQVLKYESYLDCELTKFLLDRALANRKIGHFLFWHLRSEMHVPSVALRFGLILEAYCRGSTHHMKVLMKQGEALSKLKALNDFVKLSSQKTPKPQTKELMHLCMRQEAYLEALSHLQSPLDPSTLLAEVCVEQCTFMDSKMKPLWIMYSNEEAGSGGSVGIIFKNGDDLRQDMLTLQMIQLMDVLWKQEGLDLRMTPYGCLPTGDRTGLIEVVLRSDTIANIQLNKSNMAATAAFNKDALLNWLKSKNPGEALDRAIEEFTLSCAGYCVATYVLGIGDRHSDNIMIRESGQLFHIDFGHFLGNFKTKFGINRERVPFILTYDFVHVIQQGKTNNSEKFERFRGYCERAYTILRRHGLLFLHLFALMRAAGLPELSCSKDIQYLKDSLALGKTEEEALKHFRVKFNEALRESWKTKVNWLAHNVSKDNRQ
T12 sequence (Q8NE63 whole entry): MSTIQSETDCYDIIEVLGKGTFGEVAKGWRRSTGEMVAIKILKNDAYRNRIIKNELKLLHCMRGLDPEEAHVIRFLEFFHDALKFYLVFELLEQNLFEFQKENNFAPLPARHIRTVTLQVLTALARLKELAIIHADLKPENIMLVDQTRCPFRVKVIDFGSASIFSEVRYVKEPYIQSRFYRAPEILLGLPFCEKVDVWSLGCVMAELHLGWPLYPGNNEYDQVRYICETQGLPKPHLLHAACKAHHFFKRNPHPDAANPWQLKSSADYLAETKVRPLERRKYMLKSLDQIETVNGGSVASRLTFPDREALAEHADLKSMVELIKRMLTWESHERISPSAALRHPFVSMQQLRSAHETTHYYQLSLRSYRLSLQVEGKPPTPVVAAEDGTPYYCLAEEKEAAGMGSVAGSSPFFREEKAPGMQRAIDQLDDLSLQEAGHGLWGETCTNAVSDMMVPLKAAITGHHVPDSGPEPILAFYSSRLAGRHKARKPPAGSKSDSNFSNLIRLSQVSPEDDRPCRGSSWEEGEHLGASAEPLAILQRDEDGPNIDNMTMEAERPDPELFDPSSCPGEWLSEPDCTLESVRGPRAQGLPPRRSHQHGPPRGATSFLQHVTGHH
T8 sequence (Q05655 whole entry): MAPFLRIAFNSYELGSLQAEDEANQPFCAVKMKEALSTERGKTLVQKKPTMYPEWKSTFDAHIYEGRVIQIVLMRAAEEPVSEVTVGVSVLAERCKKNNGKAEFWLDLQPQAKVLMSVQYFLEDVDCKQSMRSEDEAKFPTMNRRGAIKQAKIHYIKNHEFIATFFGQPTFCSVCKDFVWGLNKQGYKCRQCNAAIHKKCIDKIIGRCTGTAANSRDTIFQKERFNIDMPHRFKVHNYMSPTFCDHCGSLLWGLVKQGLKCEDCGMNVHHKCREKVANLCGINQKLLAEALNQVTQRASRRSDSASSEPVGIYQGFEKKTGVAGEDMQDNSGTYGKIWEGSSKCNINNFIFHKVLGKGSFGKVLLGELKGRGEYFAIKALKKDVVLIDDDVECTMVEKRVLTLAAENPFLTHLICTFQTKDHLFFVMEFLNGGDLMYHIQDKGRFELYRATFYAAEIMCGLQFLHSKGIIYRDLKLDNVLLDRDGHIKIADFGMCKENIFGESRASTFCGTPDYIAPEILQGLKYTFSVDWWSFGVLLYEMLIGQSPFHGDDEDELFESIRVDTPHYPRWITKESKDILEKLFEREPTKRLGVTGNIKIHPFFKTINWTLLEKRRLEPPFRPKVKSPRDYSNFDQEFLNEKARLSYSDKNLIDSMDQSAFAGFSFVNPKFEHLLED
T40 sequence (P23458 561-860 limits assumed): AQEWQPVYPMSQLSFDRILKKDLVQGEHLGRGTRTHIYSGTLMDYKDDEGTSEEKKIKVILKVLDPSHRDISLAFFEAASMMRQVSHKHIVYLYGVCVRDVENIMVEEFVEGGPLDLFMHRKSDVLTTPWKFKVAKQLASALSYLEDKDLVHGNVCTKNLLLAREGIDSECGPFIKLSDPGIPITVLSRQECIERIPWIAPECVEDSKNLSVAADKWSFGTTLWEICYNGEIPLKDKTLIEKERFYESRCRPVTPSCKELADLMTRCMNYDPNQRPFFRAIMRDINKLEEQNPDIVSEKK

SMILES: CN1CCN(C2CCC(n3cc(-c4ccc(Oc5ccccc5)cc4)c4c(N)ncnc43)CC2)CC1 (stereo not drawn) [A-419259]
- % Control (VPS34): 63%
- % Control (DYRK2): 100%
- % Control (QSK): 93%
- % Control (ROS1): 100%
- % Control (MAP3K15): 79%
- % Control (AMPK-alpha2): 42%
- % Control (ERK2): 77%
- % Control (PRKCD): 89%
- % Control (TEC): 9%
- % Control (SLK): 100%
- % Control (ARK5): 90%
- % Control (HIPK4): 63%
- % Control (SRPK2): 97%
- % Control (PIK3CA(C420R)): 100%
- % Control (BMPR1B): 92%
- % Control (CSNK1G2): 84%
- % Control (TRKA): 16%
- % Control (EPHA6): 94%
- % Control (CDK2): 70%
- % Control (PIK3CD): 100%
- % Control (IRAK4): 90%
- % Control (WNK1): 73%
- % Control (DMPK): 100%
- % Control (EPHB2): 100%
- % Control (GRK3): 100%
- % Control (MET): 58%
- % Control (PFCDPK1(P.falciparum)): 0%
- % Control (DLK): 54%
- % Control (FER): 100%
- % Control [1]: 66%
- % Control (LIMK1): 31%
- % Control (DDR1): 65%
- % Control (KIT(D816H)): 40%
- % Control (SRPK1): 100%
- % Control (CDKL5): 100%
- % Control (CDKL3): 100%
- % Control (WEE1): 100%
- % Control (HIPK1): 80%
- % Control (PIP5K1A): 100%
- % Control [2]: 100%
- % Control (PIK3CA(I800L)): 98%
- % Control (ICK): 97%
